Assay results as given in US11103588B2, “Methods and compositions relating to carnitine-derived materials” (Wayne State University, priority 2017, dated 2021).
Where a name gives a salt, the structure may show the parent alone. Read-outs that look alike come from different tables or passages of the source.

Details: for Solubility in ACN / Solubility in CHCl3 / Solubility in EA: 80 mg/ml
From the text: It is critical to select the right solvent for the one-step reaction to obtain L-carnitineMA monomer. Acryloyl chloride has to be dissolved in a non-protic solvent to preserve its reactivity.

For `C[N+](C)(C)C[C@H](O)CC(=O)[O-].Cl` [L-carnitine hydrochloride], the “Solubility in ACN” value (40° C.) was “No (No: not soluble)”, the “Solubility in ACN” value (80° C.) was “No (No: not soluble)” and the “Solubility in CHCl3” value (CHCl3, 40° C.) was “No (No: not soluble)”. For the same molecule, the “Solubility in CHCl3” value (CHCl3, 80° C.) was “No (No: not soluble)”, the “Solubility in EA” value (40° C.) was “No (No: not soluble)” and the “Solubility in EA” value (80° C.) was “No (No: not soluble)”. The “Solubility in DMF (in words)” value (80° C.) was “partially dissolved”.

For `C[N+](C)(C)C[C@H](O)CC(=O)[O-]` [L-carnitine inner-salt], the “Solubility in ACN” value (40° C.) was “No (No: not soluble)”, the “Solubility in ACN” value (80° C.) was “No (No: not soluble)” and the “Solubility in CHCl3” value (CHCl3, 40° C.) was “No (No: not soluble)”. The “Solubility in CHCl3” value (CHCl3, 80° C.) was “No (No: not soluble)”, the “Solubility in EA” value (40° C.) was “No (No: not soluble)” and the “Solubility in EA” value (80° C.) was “No (No: not soluble)”. For the same molecule, the “Solubility in DMF (in words)” value (80° C.) was “totally insoluble”.
